Experimental data taken from US9884842B2, “Combretastatin analogs” (The Board of Trustees of the University of Arkansas, priority 2013, dated 2018).

Columns and labels:
CAKI-1 = assay: NCI growth inhibition and cytotoxicity screen, Renal Cancer panel; details: Homo sapiens; for GI50: CAKI-1; for CC50: CAKI-1, read-out: LC50
SK-MEL-28 = assay: NCI growth inhibition and cytotoxicity screen, Melanoma panel; details: Homo sapiens; for GI50: SK-MEL-28; for CC50: SK-MEL-28, read-out: LC50
SNB-75 = assay: NCI growth inhibition and cytotoxicity screen, CNS Cancer panel; details: Homo sapiens; for GI50: SNB-75; for CC50: SNB-75, read-out: LC50
RPMI-8226 = assay: NCI growth inhibition and cytotoxicity screen, Leukemia panel; details: Homo sapiens; for GI50: RPMI-8226; for CC50: RPMI-8226, read-out: LC50
SF-268 = assay: NCI growth inhibition and cytotoxicity screen, CNS Cancer panel; details: Homo sapiens; for GI50: SF-268; for CC50: SF-268, read-out: LC50
SK-OV-3 = assay: NCI growth inhibition and cytotoxicity screen, Ovarian Cancer panel; details: Homo sapiens; for GI50: SK-OV-3; for CC50: SK-OV-3, read-out: LC50
M14 = assay: NCI growth inhibition and cytotoxicity screen, Melanoma panel; details: Homo sapiens; for GI50: M14; for CC50: M14, read-out: LC50
NCI-H460 = assay: NCI growth inhibition and cytotoxicity screen, Lung Cancer panel; details: Homo sapiens; for GI50: NCI-H460; for CC50: NCI-H460, read-out: LC50
HOP-92 = assay: as above; details: Homo sapiens; for GI50: HOP-92; for CC50: HOP-92, read-out: LC50
T-47D = assay: NCI growth inhibition and cytotoxicity screen, Breast Cancer panel; details: Homo sapiens, T47D; for CC50: read-out: LC50
OVCAR-3 = assay: cells; details: Homo sapiens; for GI50: OVCAR-3; for CC50: OVCAR-3, read-out: LC50
SNB-19 = assay: NCI growth inhibition and cytotoxicity screen, CNS Cancer panel; details: Homo sapiens; for GI50: SNB-19; for CC50: SNB-19, read-out: LC50
K-562 = assay: NCI growth inhibition and cytotoxicity screen, Leukemia panel; details: Homo sapiens; for GI50: K562; for CC50: K562, read-out: LC50
SF-539 = assay: NCI growth inhibition and cytotoxicity screen, CNS Cancer panel; details: Homo sapiens; for GI50: SF-539; for CC50: SF-539, read-out: LC50
SK-MEL-2 = assay: NCI growth inhibition and cytotoxicity screen, Melanoma panel; details: Homo sapiens; for GI50: SK-MEL-2; for CC50: SK-MEL-2, read-out: LC50
UACC-62 = assay: as above; details: Homo sapiens; for GI50: UACC-62; for CC50: UACC-62, read-out: LC50
U251 = assay: NCI growth inhibition and cytotoxicity screen, CNS Cancer panel; details: Homo sapiens; for GI50: U-251; for CC50: U-251, read-out: LC50
NCI-H226 = assay: NCI growth inhibition and cytotoxicity screen, Lung Cancer panel; details: Homo sapiens; for GI50: NCI-H226; for CC50: NCI-H226, read-out: LC50
KM12 = assay: NCI growth inhibition and cytotoxicity screen, Colon Cancer panel; details: Homo sapiens; for GI50: KM12; for CC50: KM12, read-out: LC50
BT-549 = assay: NCI growth inhibition and cytotoxicity screen, Breast Cancer panel; details: Homo sapiens; for GI50: BT-549; for CC50: BT-549, read-out: LC50
IGROV1 = assay: NCI growth inhibition and cytotoxicity screen, Ovarian Cancer panel; details: Homo sapiens; for GI50: IGROV-1; for CC50: IGROV-1, read-out: LC50
786-0 = assay: NCI growth inhibition and cytotoxicity screen, Renal Cancer panel; details: Homo sapiens; for GI50: 786-0; for CC50: 786-0, read-out: LC50
UACC-257 = assay: NCI growth inhibition and cytotoxicity screen, Melanoma panel; details: Homo sapiens; for CC50: UACC-257, read-out: LC50
MCF7 = assay: NCI growth inhibition and cytotoxicity screen, Breast Cancer panel; details: Homo sapiens; for GI50: MCF7; for CC50: MCF7, read-out: LC50
OVCAR-5 = assay: NCI growth inhibition and cytotoxicity screen, Ovarian Cancer panel; details: Homo sapiens; for GI50: OVCAR-5; for CC50: OVCAR-5, read-out: LC50
A549/ATCC = assay: NCI growth inhibition and cytotoxicity screen, Lung Cancer panel; details: Homo sapiens; for GI50: A549; for CC50: A549, read-out: LC50
LOX-IMVI = assay: NCI growth inhibition and cytotoxicity screen, Melanoma panel; details: Homo sapiens; for CC50: read-out: LC50
HT29 = assay: NCI growth inhibition and cytotoxicity screen, Colon Cancer panel; details: Homo sapiens; for GI50: HT-29; for CC50: HT-29, read-out: LC50
TK-10 = assay: NCI growth inhibition and cytotoxicity screen, Renal Cancer panel; details: Homo sapiens; for GI50: TK-10; for CC50: TK-10, read-out: LC50
NCI/ADR-RES = assay: NCI growth inhibition and cytotoxicity screen, Ovarian Cancer panel; details: Homo sapiens; for CC50: read-out: LC50
A498 = assay: NCI growth inhibition and cytotoxicity screen, Renal Cancer panel; details: Homo sapiens; for GI50: A498; for CC50: A498, read-out: LC50

COc1cc(/C(C#N)=C/c2cnc3ccccc3c2)cc(OC)c1OC [PNR-5-10, (Z)-3-(quinolin-3-yl)-2-(3,4,5-trimethoxyphenyl)acrylonitrile]
403 nM: GI50 (HOP-92)
436 nM: GI50 (KM12)
1050 nM: GI50 (SK-MEL-2)
263 nM: GI50 (OVCAR-3)
678 nM: GI50 (A498)
> 100000 nM: CC50 (CAKI-1) | CC50 (SK-MEL-28) | CC50 (SNB-75) | CC50 (RPMI-8226) | CC50 (SF-268) | CC50 (SK-OV-3) | CC50 (M14) | CC50 (NCI-H460) | CC50 (HOP-92) | CC50 (T-47D) | CC50 (OVCAR-3) | CC50 (SNB-19) | CC50 (K-562) | CC50 (SF-539) | CC50 (SK-MEL-2) | CC50 (UACC-62) | CC50 (U251) | GI50 (NCI-H226) | CC50 (NCI-H226) | CC50 (KM12) | CC50 (BT-549) | CC50 (IGROV1) | CC50 (786-0) | CC50 (UACC-257) | CC50 (MCF7) | CC50 (OVCAR-5) | CC50 (A549/ATCC) | CC50 (LOX-IMVI) | CC50 (HT29) | CC50 (TK-10) | CC50 (NCI/ADR-RES) | CC50 (A498)
3270 nM: GI50 (SK-MEL-28)
361 nM: GI50 (SF-539)
5230 nM: GI50 (SNB-19)
9540 nM: GI50 (T-47D)
2060 nM: GI50 (RPMI-8226)
645 nM: GI50 (LOX-IMVI)
540 nM: GI50 (M14)
478 nM: GI50 (UACC-62)
444 nM: GI50 (K-562)
346 nM: GI50 (CAKI-1)
1340 nM: GI50 (SK-OV-3)
680 nM: GI50 (A549/ATCC)
6290 nM: GI50 (786-0)
3940 nM: GI50 (OVCAR-5)
343 nM: GI50 (NCI/ADR-RES)
3150 nM: GI50 (IGROV1)
2550 nM: GI50 (TK-10)
429 nM: GI50 (MCF7)
9170 nM: GI50 (SF-268)
421 nM: GI50 (HT29)
1490 nM: GI50 (SNB-75)
1700 nM: GI50 (U251)
1430 nM: GI50 (BT-549)
2050 nM: GI50 (NCI-H460)

COc1cc(/C(C#N)=C\c2cc3ccccc3s2)cc(OC)c1OC [Formula (I)(a)]
17.9 nM: GI50 (NCI-H226)
39.1 nM: GI50 (SNB-19)
37.8 nM: GI50 (CAKI-1)
< 10 nM: GI50 (SK-MEL-28) | GI50 (SNB-75) | GI50 (RPMI-8226) | GI50 (SF-268) | GI50 (SK-OV-3) | GI50 (M14) | GI50 (NCI-H460) | GI50 (HOP-92) | GI50 (T-47D) | GI50 (OVCAR-3) | GI50 (K-562) | GI50 (SF-539) | GI50 (SK-MEL-2) | GI50 (UACC-62) | GI50 (U251) | GI50 (KM12) | GI50 (BT-549) | GI50 (IGROV1) | GI50 (786-0) | GI50 (UACC-257; UACC-257) | GI50 (MCF7) | GI50 (OVCAR-5) | GI50 (A549/ATCC) | GI50 (LOX-IMVI) | GI50 (HT29) | GI50 (TK-10) | GI50 (NCI/ADR-RES) | GI50 (A498)
> 100000 nM: CC50 (CAKI-1) | CC50 (SK-MEL-28) | CC50 (SNB-75) | CC50 (RPMI-8226) | CC50 (SF-268) | CC50 (SK-OV-3) | CC50 (M14) | CC50 (NCI-H460) | CC50 (HOP-92) | CC50 (T-47D) | CC50 (OVCAR-3) | CC50 (SNB-19) | CC50 (K-562) | CC50 (SF-539) | CC50 (SK-MEL-2) | CC50 (UACC-62) | CC50 (U251) | CC50 (NCI-H226) | CC50 (KM12) | CC50 (BT-549) | CC50 (IGROV1) | CC50 (786-0) | CC50 (UACC-257) | CC50 (MCF7) | CC50 (OVCAR-5) | CC50 (A549/ATCC) | CC50 (LOX-IMVI) | CC50 (HT29) | CC50 (TK-10) | CC50 (NCI/ADR-RES) | CC50 (A498)
